Test results as given in US20220380371A1, “MLL1 INHIBITORS AND ANTI-CANCER AGENTS” (NOVARTIS AG, priority 2019, published 2022).
Where two headings read alike, the source gives them in different places.

Columns and labels:
[1] = molecular target: wild type MLL1 four-member complex (MLL1-4C) (Homo sapiens, UniProt Q03164); assay: MLL1 LC-MS Assay; assay type: biochemical
Procedure, shortened: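 Compound pre-incubated 20 min with MLL1-4C and SAM, then H3[1-21]-biotin (H3K4me0) substrate added; final 30 nM enzyme, 2.5 μM SAM, 10 μM peptide in Tris pH 8.0 with MgCl2, DTT, Tween 20, BSA. After 120 min at rt, TFA-quenched SAH quantified by LC-MS/MS with d4-SAH; IC50 from dose-response fit.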

H3K4me3 in MV4-11 cells = assay: MV4-11 H3K4me3 Cellular ELISA Assay; assay type: cell-based; conditions: Homo sapiens, MV4-11, 48 h
Procedure, shortened: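 MV4-11 cells were treated for 48 h with 12-point 1:3 compound dilutions (from 10 mM stock), then histones were acid-extracted with 0.5M HCl and neutralized. H3K4me3 and total H3 were measured by HRP chemiluminescent ELISA, and inhibition versus DMSO after H3 normalization was curve-fitted for IC50.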

[2] = molecular target: wild type MLL1 five-member complex (MLL1-5C) (Homo sapiens, UniProt Q03164); assay: MLL1 Flashplate Assay; assay type: biochemical; conditions: read-out: MLL1 flash plate
Procedure: MLL1 Flashplate Assay To assess the compound potency in MLL1 Flashplate assay, compounds were serially diluted 3-fold in DMSO to obtain a total of twelve concentrations. Then the test compounds at each concentration (250 nL of each) were transferred by Mosquito into Corning #3675 384-well plate. Solutions (15 μL) of 4.2 nM wild type MLL1 five-member complex (MLL1-5C) in the assay buffer (20 mM Tris-HCl, pH 8.0, 0.01% Tween 20, 1 mM DTT, 0.01% BSA) were added to the wells. A 10 μL solution of 2.5 μM of the peptide substrate H3K4me0 (histone H3[1-21]-Biotin) and 1.25 μM ^3H-SAM in the reaction buffer was then added to initiate each reaction. The final components in the reaction solution include 2.5 nM MLL1-5C, 0.5 μM ^3H-SAM, and 1 μM H3K4me0 with varying concentration of the compounds. A positive control consisted of 2.5 nM MLL1-5C, 0.5 μM ^3H-SAM, and 1 μM substrate in the absence of the test compound, and a negative control consisted of 0.5 μM ^3H-SAM, and 1 μM substrate only. Each reaction was incubated at rt for 90 min, then stopped by addition of 5 μL per of quench solution (0.5 mM SAM in assay buffer). 25 μL of each reaction solution was transferred to FlashPlate streptavidin 384-well microplate (PerkinElmer). After at least 1 h incubation at rt, the wells were washed three times with 0.1% Tween-20 in dH2O using the BioTek plate washer. The plates were then read in MicroBeta (PerkinElmer). The radioactive readouts were then normalized based on the values coming from the positive and negative controls to give percent enzyme activities. The data were then fit to a dose response equation using the program Helios to get the IC50 values of the test compounds.

MV4-11 cells = assay: MV4-11 6-Day Cell Growth CTG (CellTiter-Glo) Assay; assay type: cell-based; conditions: Homo sapiens, MV4-11, 144 h, MV4-11 cell growth CellTiter-Glo, 6 days
Procedure, shortened: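 MV4-11 AML cells (RPMI 1640, 10% FBS) seeded at 300 cells/well and exposed for 6 days at 37 °C to a 12-point, 1:3 compound series starting at 50 μM final. Viable cells read by CellTiter-Glo luminescence; percent inhibition versus DMSO-only wells fitted to dose-response curves for IC50.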

IC50 ([1]; read-out: LCMS) | IC50 (H3K4me3 in MV4-11 cells) | IC50 [2] | IC50 (MV4-11 cells) | IC50 ([1]; read-out: MLL1 LCMS) | Structure (SMILES)
< 50 nM | < 1900 nM | < 60 nM | < 2000 nM | – | Nc1ncnc2c1ncn2Cc1c(N2CC[C@](N)(C(=O)NC3CC3)C2)ccc(F)c1C(F)(F)F [Example 116, (R)-3-amino-1-(2-((6-amino-9H-purin-9-yl)methyl)-4-fluoro-3-(trifluoromethyl)phenyl)-N-cyclopropylpyrrolidine-3-carboxamide]
< 50 nM | < 1900 nM | < 60 nM | < 2000 nM | – | CS[C@H]1C[C@H](NC(=O)[C@@]2(N)CCN(c3ccc(F)c(C(F)(F)F)c3Cn3cnc4c(N)ncnc43)C2)C1 [Example 117]
50 to 100 nM | < 1900 nM | < 60 nM | < 2000 nM | – | Nc1ncnc2c1ncn2Cc1c(N2CC[C@](N)(C(=O)NCc3cccnn3)C2)ccc(F)c1C(F)(F)F [Example 118]
50 to 100 nM | < 1900 nM | < 60 nM | < 2000 nM | – | N#CCC1CCN(C(=O)[C@@]2(N)CCN(c3ccc(F)c(C(F)(F)F)c3Cn3cnc4c(N)ncnc43)C2)CC1 [Example 119]
> 100 nM | < 1900 nM | < 60 nM | < 2000 nM | – | Nc1ncnc2c1ncn2Cc1c(N2CC[C@](N)(C(=O)Nc3cc(C4CC4)n[nH]3)C2)ccc(F)c1C(F)(F)F [Example 123]
< 50 nM | < 1900 nM | < 60 nM | < 2000 nM | – | CC(C)(C#N)CNC(=O)[C@@]1(N)CCN(c2ccc(F)c(C(F)(F)F)c2Cn2cnc3c(N)ncnc32)C1 [Example 125]
< 50 nM | < 1900 nM | < 60 nM | < 2000 nM | – | Nc1ncnc2c1ncn2Cc1c(N2CC[C@](N)(C(=O)N[C@@H]3C[C@H]3CO)C2)ccc(F)c1C(F)(F)F [Example 127]
> 100 nM | < 1900 nM | > 100 nM | > 3000 nM | – | Nc1ncnc2c1ncn2Cc1c(N2CC[C@](N)(C(=O)N3CCn4nncc4C3)C2)ccc(F)c1C(F)(F)F [Example 128]
50 to 100 nM | < 1900 nM | < 60 nM | < 2000 nM | – | C[C@H]1CN(C(=O)[C@@]2(N)CCN(c3ccc(F)c(C(F)(F)F)c3Cn3cnc4c(N)ncnc43)C2)CCO1 [Example 131]
50 to 100 nM | < 1900 nM | < 60 nM | < 2000 nM | – | N#CC1CN(C(=O)[C@@]2(N)CCN(c3ccc(F)c(C(F)(F)F)c3Cn3cnc4c(N)ncnc43)C2)C1 [Example 132]
50 to 100 nM | < 1900 nM | 60 to 100 nM | < 2000 nM | – | Nc1nccc(CNC(=O)[C@@]2(N)CCN(c3ccc(F)c(C(F)(F)F)c3Cn3cnc4c(N)ncnc43)C2)n1 [Example 133]
> 100 nM | < 1900 nM | < 60 nM | < 2000 nM | – | Nc1ncnc2c1ncn2Cc1c(N2CC[C@](N)(C(=O)N3CCc4nocc4C3)C2)ccc(F)c1C(F)(F)F [Example 134]
50 to 100 nM | < 1900 nM | < 60 nM | < 2000 nM | – | C[C@@H]1CN(C(=O)[C@@]2(N)CCN(c3ccc(F)c(C(F)(F)F)c3Cn3cnc4c(N)ncnc43)C2)CCO1 [Example 135]
50 to 100 nM | < 1900 nM | < 60 nM | < 2000 nM | – | N#CCN1CCN(C(=O)[C@@]2(N)CCN(c3ccc(F)c(C(F)(F)F)c3Cn3cnc4c(N)ncnc43)C2)CC1 [Example 136]
50 to 100 nM | < 1900 nM | < 60 nM | < 2000 nM | – | Nc1ncnc2c1ncn2Cc1c(N2CC[C@](N)(C(=O)N3CCC[C@@H](O)C3)C2)ccc(F)c1C(F)(F)F [Example 138]
> 100 nM | < 1900 nM | 60 to 100 nM | < 2000 nM | – | CCn1ncnc1CNC(=O)[C@@]1(N)CCN(c2ccc(F)c(C(F)(F)F)c2Cn2cnc3c(N)ncnc32)C1 [Example 140]

IC50 ([1]; read-out: LCMS) | IC50 (H3K4me3 in MV4-11 cells) | IC50 [2] | IC50 (MV4-11 cells) | IC50 ([1]; read-out: MLL1 LCMS) | Structure (SMILES)
– | < 1900 nM | < 60 nM | < 2000 nM | < 50 nM | N#CC1CCN(C(=O)[C@@]2(N)CCN(c3ccc(F)c(C(F)(F)F)c3Cn3cnc4c(N)ncnc43)C2)C1 (some centres unmarked) [Example 141]
– | < 1900 nM | < 60 nM | > 3000 nM | < 50 nM | Nc1ncnc2c1ncn2Cc1c(Br)ccc(Cl)c1N1CC[C@@](N)(C(=O)O)C1 [Example 142]
– | < 1900 nM | < 60 nM | < 2000 nM | < 50 nM | Nc1ncnc2c1ncn2Cc1c(Br)c(Cl)cc(Cl)c1N1CC[C@](N)(C(=O)NC2CC2)C1 [Example 143]
– | < 1900 nM | < 60 nM | < 2000 nM | < 50 nM | Nc1ncnc2c1ncn2Cc1c(N2CC[C@](N)(C(=O)NC3CC3)C2)ccc(Cl)c1Cl [Example 144]
– | < 1900 nM | < 60 nM | < 2000 nM | < 50 nM | CCc1c(Cl)ccc(N2CC[C@](N)(C(=O)NCCS(=O)(=O)c3ccccc3)C2)c1Cn1cnc2c(N)ncnc21 [Example 145]
– | < 1900 nM | < 60 nM | < 2000 nM | < 50 nM | Nc1ncnc2c1ncn2Cc1c(N2CC[C@](N)(C(=O)NC3CC3)C2)ccc(Br)c1C(F)(F)F [Example 146]
– | < 1900 nM | < 60 nM | < 2000 nM | < 50 nM | Nc1ncnc2c1ncn2Cc1c(N2CC[C@](N)(C(=O)NC3CC3)C2)ccc(OC(F)(F)F)c1Br [Example 147]
– | < 1900 nM | < 60 nM | < 2000 nM | < 50 nM | NC(=O)[C@@]1(N)CCN(c2cc(Cl)cc(Br)c2Cn2cnc3c(N)ncnc32)C1 [Example 148]
– | < 1900 nM | < 60 nM | < 2000 nM | < 50 nM | CCc1c(Cl)ccc(N2CC[C@](N)(C(=O)NCCS(=O)(=O)CC)C2)c1Cn1cnc2c(N)ncnc21 [Example 149]
– | 1900 to 3000 nM | < 60 nM | < 2000 nM | < 50 nM | Nc1ncnc2c1ncn2Cc1c(-c2cccc3c2CCCC3)cc(Cl)cc1N1CC[C@](N)(C(=O)NC2CC2)C1 [Example 150]
– | < 1900 nM | < 60 nM | < 2000 nM | > 100 nM | CCc1cc(Cl)cc(N2CC[C@](N)(C(=O)N3CCS(=O)(=O)CC3)C2)c1Cn1cnc2c(N)ncnc21 [Example 151]
– | < 1900 nM | < 60 nM | < 2000 nM | > 100 nM | Nc1ncnc2c1ncn2Cc1c(Cl)c(Cl)cc(F)c1N1CCC(N)(C(=O)NC2CC2)C1 (centres unmarked) [Example 152]
– | < 1900 nM | 60 to 100 nM | < 2000 nM | < 50 nM | CCc1c(Cl)ccc(N2CC[C@](N)(C(=O)NC3CCS(=O)(=O)CC3)C2)c1Cn1cnc2c(N)ncnc21 [Example 153]
– | < 1900 nM | > 100 nM | < 2000 nM | < 50 nM | CCc1ccc(Cl)c(N2CC[C@](N)(C(=O)NC3CC3)C2)c1Cn1cnc2c(N)ncnc21 [Example 154]
– | < 1900 nM | > 100 nM | < 2000 nM | > 100 nM | CCc1c(Cl)ccc(N2CC[C@](N)(C(=O)N3CCS(=O)(=O)CC3)C2)c1Cn1cnc2c(N)ncnc21 [Example 155]
– | < 1900 nM | < 60 nM | < 2000 nM | 50 to 100 nM | CCOC(=O)[C@@]1(N)CCN(c2cc(Cl)cc(Br)c2Cn2cnc3c(N)ncnc32)C1 [Example 170]
